These results are taken from patent publication US20250064889A1, “TRPV6 INHIBITORS AND COMBINATION THERAPIES FOR TREATING CANCERS” (Soricimed Biopharma Inc., priority 2017, published 2025).

One series has as its system NFAT activation. As to the kind of experiment: In vitro NFAT analysis: NFAT dual reporter luciferase assay in T-47D cells. The format is cell-based. To be noted: 500 μM daily for 72 hrs, p<0.05. How it is done:
(§1) • Transfection: T-47D cells were plated at 1×10^4 cells/well in a 96-well plate and cultured overnight. Cells were transfected for 24 hrs at 37° C./5% CO2 using Liptofectamine 3000 (0.3 μL/well)/P3000 Reagent (1 μL/well) in Opti-MEM medium and with a 500 ng of NFAT dual reporter plasmid (Cignal NFAT Reporter, Qiagen). • Drug Dosing: After transfection the T-47D cells were dosed daily with NT (s.f. PBS) or 500 μM SOR-C13 (prepared fresh daily in f.s. PBS) for 72 hrs. Once dosed the 96-well plate was incubated at 37° C./5% CO2 for the duration dosing period of 72 hrs. Dosing was repeated every 24 hrs for 72 hrs. • Plate Assay: Luminescence was monitored using Dual-Glo® Luciferase assay (Promega) to measure changes in NFAT luminescence expression (related to pKC pathway) between PBS and SOR-C13 treated T-47D cells. Firefly and Renilla Luminescence was measured using a molecular devices microplate reader.

Another series deals with calcineurin. Description: Calcineurin Cellular (PP2B) Phosphate Activity Assay on BxPC-3 cell lysates. To be noted: 500 μM, at 24 hrs and 72 hrs, p<0.05. The format is cell-based. How it is done:
(§2) • Drug Dosing: Cells were plated at 5×10^5 cells/well in a 6-well plate. After 24 hrs incubation the BxPC-3 cells were dosed daily with NT (s.f. PBS) or 500 μM SOR-C13 (prepared fresh daily in f.s. PBS) for 72 hrs. Once dosed cells were incubated at 37° C./5% CO2 for the duration dosing period of 72 hrs. Dosing was repeated every 24 hrs for 72 hrs. Every 24 hrs protein lysates (RIPA) were prepared from cells and de-salted (7 kDa MWCO, Zebra spin columns, Fisher). Bel-2 assay was a 96 hrs dosing parameter. • Plate Assay (Calnr): Cellular Calcineurin concentration was monitored at 620 nm using the Calcineurin Cellular (PP2B) Phosphate Activity Assay kit (EMD Millipore). Results were interpolated from standard curve for amount of Phosphate released. • Plate Assay (Bcl-2): Human total Bel-2 concentration was performed using DuoSet® Human Total BcL-2 sandwich ELISA (R&D Systems). Bel-2 concentration for BxPC-3 cells was extrapolated from (4-PL) standard curve Bel-2.

Another series relates to Human total Bel-2. Description: Human Total Bcl-2 sandwich ELISA on BxPC-3 cells. The series is classed as cell-based. To be noted: 500 μM, at 96 hrs, p<0.05. The method, then:
as §2
For orientation: ELISA stands for enzyme-linked immunosorbent assay.

The next series has as its system MMP-9. As to the kind of experiment: MMP-9 Cytoglow ELISA on BxPC-3 cells. The series is classed as cell-based. To be noted: BxPC-3 cells treated for 96 hr daily at 100 and 500 μM, p<0.05. How it is done: • Drug Dosing: BxPC-3 cells were plated at 2×10^4 cells/well in a 96-well plate and cultured overnight. Cells were dosed daily with NT (s.f. PBS) 100, 500 μM SOR-C13 (prepared fresh daily in f.s. PBS) for 96 hrs. Dosing was repeated every 24 hrs for 96 hrs. • Plate Assay: MMP-9 concentration was monitored using the MMP-9 Cytoglow ELISA (Assay Biotech). Cells were fixed to plate, and ELISA was performed, MMP-9 expression was calculated as % of No Treatment control.

In series [1] the test system is T-47D breast cancer cell lines. As to the kind of experiment: RT-qPCR TaqMan Array, 187 gene panel, T-47D cells treated with SOR-C13. The series is classed as cell-based. To be noted: 500 μM for 120 hrs, genes with >1.5 fold change. How it is done: • mRNA Expression: The expression NFAT/Ca^2+ related genes mRNA levels were determined in 6 Cancer Cell lines treated with SOR-C13 (500 μM) for 120 hrs using a qPCR TaqMan® Array panel consisting of 187 genes (ThermoFisher). Cells were harvested with lysis buffer from the PureLink RNA Mini Kit and then RNA isolation carried out as per manufacturers instructions (ThermoFisher Scientific). RNA was quantified using the Qubit Fluorometer. Reverse Transcription was performed and cDNA created using SuperScript™ IV VILO Master Mix with ezDNase Enzyme (ThermoFisher Scientific). Each port of the Custom TaqMan® Array Card was loaded with 500 ng of cDNA and 1× TaqMan Fast Advanced Master Mix. RT-qPCR was performed using the Quantstudio™ 7Flex and analysis performed by ThermoFisher cloud software using GUSB and HRPT1 as endogenous controls.

In series [2] the test system is NFAT signalling molecular pathway targets (Calnr, Bel-2, ATX, MMP-9 and NFAT). Description: In vitro dosing experiments, NFAT signalling molecular pathway targets (summary). The series is classed as cell-based. The method, then: as §1
• Drug Dosing: Cells were plated at 5×10^5 cells/well in a 6-well plate. After 24 hrs incubation the BxPC-3 cells were dosed daily with NT (s.f. PBS) or 500 μM SOR-C13 (prepared fresh daily in f.s. PBS) for 72 hrs. […] Bel-2 assay was a 96 hrs dosing parameter. • Plate Assay (Calnr): Cellular Calcineurin concentration was monitored at 620 nm using the Calcineurin Cellular (PP2B) Phosphate Activity Assay kit (EMD Millipore). […]

Series [3] deals with BxPC-3 pancreatic cancer cells. Description: Combination with immune checkpoint modulator: BxPC-3 cells co-incubated with activated Jurkat cells, viability and IL-2. The series is classed as cell-based. Particulars: BxPC-3 pre-treated with INF-γ, 100 μM SOR-C13 48 hours. How it is done:
Experiments are performed to evaluate the effect of TRPV6 inhibitors in combination with immune checkpoint modulators such as PD-1 inhibitors (see Yang et al., Invest Ophthalmol Vis Sci. 2008 June; 49(6): 2518-2525; and FIG. 2). Briefly, BxPC-3 pancreatic cancer cells are treated with INF-γ for 48 hours to induce the cell surface expression of PD-L1. Once activated, sets of BxPC-3 cells are treated with 0 or 100 μM of SOR-C13 (KEFLHPSKVDLPR; SEQ ID NO:2) for 48 hours. Immune checkpoint modulatory test agents such as pembrolizumab (KEYTRUDA*) are added at various concentrations, along with activated Jurkat cells (i.e., cytotoxic T-cells), and co-incubated with the BxPC-3 cells for 48 hours.
Viability and IL-2 production is determined 48 hours later. Activated Jurkat cells produce IL-2 which mediates the killing of BxPC-3 cells. Cell death is quantified using the Cell Titre Glow Cellular Viability Assay. The effect of SOR-C13 on IL-2 mediated killing of BxPC-3 cells is compared to IL-2 mediated killing of BxPC-3 cells in the absence of SOR-C13.

For series [4] the following is noted: Fu et al. 2017; cited from earlier work.

KEFLHPSKVDLPR [SOR-C13]: in the series on NFAT activation, the “NFAT activation, SOR-C13-treated cells vs. PBS” value was “significant difference”. Also, in the series on calcineurin, the calcineurin activity result was “inhibition”. The Bel-2 expression entry in the series on Human total Bel-2 is “significant decrease”. The “MMP-9 expression, % from PBS control” value in the series on MMP-9 is on record as “reduction”. The “NFATC1, MMP2, GSK3 and RCAN1 mRNA expression (Calcineurin/NFAT pathway)” value in series [1] is listed as “affected”. In series [2], the “NFAT signalling molecular pathway targets (Calnr, Bel-2, ATX, MMP-9 and NFAT) with treatment” value is reported as “decreases”. The “anti-cancer activity of immune checkpoint modulators such as pembrolizumab on addition of SOR-C13” value in series [3] is given as “increases”. Further, in series [4], the anti-tumour activity result was “promising anti-tumour activity”; the “tolerability and safety profile” value is “good tolerability and manageable safety profile”.
